How the values were obtained:
[1] = tested on: MCF7; assay: Inhibition of adriamycin-resistant breast tumor line MCF-7/ADR-RE proliferation; format: functional; conditions: Homo sapiens
[2] = molecular target: Protein kinase C beta type (Homo sapiens, UniProt P05771); assay: Inhibition of protein kinase C beta
[3] = tested on: MDA-N; assay: Inhibition of breast tumor lines(MDA-N) proliferation; format: functional; conditions: Homo sapiens
[4] = molecular target: T1, Protein kinase C epsilon type (Homo sapiens, UniProt Q02156); assay: Inhibition of Protein kinase C epsilon
T1 sequence (Q02156 whole entry): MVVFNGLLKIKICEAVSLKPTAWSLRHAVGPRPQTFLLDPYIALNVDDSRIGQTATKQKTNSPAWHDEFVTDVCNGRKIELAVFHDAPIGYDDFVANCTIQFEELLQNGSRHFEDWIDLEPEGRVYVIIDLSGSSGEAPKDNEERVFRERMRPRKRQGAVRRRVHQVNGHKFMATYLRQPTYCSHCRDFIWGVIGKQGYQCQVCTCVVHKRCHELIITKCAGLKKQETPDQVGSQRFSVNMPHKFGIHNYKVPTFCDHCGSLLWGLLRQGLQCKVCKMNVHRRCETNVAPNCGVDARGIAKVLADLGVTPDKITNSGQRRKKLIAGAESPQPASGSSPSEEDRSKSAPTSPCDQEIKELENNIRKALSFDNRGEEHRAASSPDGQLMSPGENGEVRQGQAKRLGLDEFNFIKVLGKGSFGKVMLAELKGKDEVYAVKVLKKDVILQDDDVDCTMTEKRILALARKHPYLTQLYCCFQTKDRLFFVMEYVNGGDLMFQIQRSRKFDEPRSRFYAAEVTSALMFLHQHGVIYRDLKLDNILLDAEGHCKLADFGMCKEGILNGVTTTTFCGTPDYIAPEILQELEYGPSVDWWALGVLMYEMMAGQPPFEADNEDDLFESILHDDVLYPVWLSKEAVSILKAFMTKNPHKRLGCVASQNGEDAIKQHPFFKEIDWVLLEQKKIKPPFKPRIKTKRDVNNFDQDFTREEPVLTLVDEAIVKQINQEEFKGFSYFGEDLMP

Chain of Protein kinase C beta type (P05771 whole entry): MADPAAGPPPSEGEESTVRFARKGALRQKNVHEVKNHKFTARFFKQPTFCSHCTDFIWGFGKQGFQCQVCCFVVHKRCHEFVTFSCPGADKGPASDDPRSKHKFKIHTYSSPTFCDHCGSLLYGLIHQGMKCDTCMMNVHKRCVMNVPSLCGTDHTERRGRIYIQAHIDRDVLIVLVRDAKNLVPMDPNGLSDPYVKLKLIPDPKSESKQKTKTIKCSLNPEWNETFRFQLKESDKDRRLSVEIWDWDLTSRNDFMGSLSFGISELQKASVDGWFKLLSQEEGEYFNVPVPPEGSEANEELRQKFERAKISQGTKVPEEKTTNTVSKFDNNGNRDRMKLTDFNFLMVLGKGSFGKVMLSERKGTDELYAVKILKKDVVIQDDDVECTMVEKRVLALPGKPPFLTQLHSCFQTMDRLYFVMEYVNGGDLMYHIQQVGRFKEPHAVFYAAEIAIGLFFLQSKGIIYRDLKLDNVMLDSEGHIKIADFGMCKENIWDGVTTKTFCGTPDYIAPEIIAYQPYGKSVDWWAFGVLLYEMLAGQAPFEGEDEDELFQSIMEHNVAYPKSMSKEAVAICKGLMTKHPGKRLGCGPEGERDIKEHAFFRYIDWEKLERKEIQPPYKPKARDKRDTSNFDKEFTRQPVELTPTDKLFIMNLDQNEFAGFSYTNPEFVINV

GI50 [1] [nM]	IC50 [2] [nM]	IC50 [4] [nM]	SMILES	GI50 [3] [nM]
100	–	–	CN(C)CCCn1c(-c2cc3ccccc3s2)c(C2=CC(=O)NC2=O)c2ccccc21	–
20	–	–	N=C(N)SCCCn1cc(C2=CC(=O)NC2=O)c2ccccc21	–
20	3	10	N=C(N)SCCCn1c(-c2cc3ccccc3s2)c(C2=CC(=O)NC2=O)c2ccccc21	< 10
